Measured values reported in patent US12239638B2, “Crystalline form of a 4-[2-(2-fluorophenoxymethyl)phenyl]piperidine compound” (THERAVANCE BIOPHARMA R&D IP, LLC, priority 2008, dated 2025).

Experiments:
[1] = target: T1, hSERT (Homo sapiens, UniProt P31645); test: hSERT membrane radioligand binding assay (3H-citalopram); conditions: compound of Example 1 tested as TFA salt; read-out: SERT pKi (converted)
T1 construct: expressed in transfected cells; host or cells: HEK-293 derived cell line, stably transfected; membranes
Method: (§1) Membrane radioligand binding assays were used to measure competitive inhibition of labeled ligand (^3H-citalopram or ^3H-nisoxetine or ^3H-WIN35428) binding to membranes prepared from cells expressing the respective human recombinant transporter (hSERT or hNET or hDAT) in order to determine the pKi values of test compounds at the transporters.
(§2) Recombinant human embryonic kidney (HEK-293) derived cell lines stably transfected with hSERT or hNET, respectively, were grown in DMEM medium supplemented with 10% dialyzed FBS (for hSERT) or FBS (for hNET), 100 μg/ml penicillin, 100 μg/ml streptomycin, 2 mM L-glutamine and 250 μg/ml of the aminoglycoside antibiotic G418, in a 5% CO2 humidified incubator at 37° C. When cultures reached 80% confluence, the cells were washed thoroughly in PBS (without Ca^2+ and Mg^2+) and lifted with 5 mM EDTA in PBS. […] Protein concentration of the membrane suspension was determined using a Bio-Rad Bradford Protein Assay kit. […]
(§3) Following a 60 minute incubation at 22° C. […] Plates were dried overnight at room temperature, ˜45 μl of MicroScint™-20 (Perkin Elmer) added and bound radioactivity quantitated via liquid scintillation spectroscopy. Competitive inhibition curves and saturation isotherms were analyzed using GraphPad Prism Software package (GraphPad Software, Inc., San Diego, CA). […]

[2] = Thermal analysis by differential scanning calorimetry (DSC); assay type: physicochemical; conditions: heating ramp 10° C./min from 22° C. to 250° C.
Method: Differential scanning calorimetry (DSC) was performed using a TA Instruments Model Q-100 module with a Thermal Analyst controller. Data were collected and analyzed using TA Instruments Thermal Solutions software. A 2.8 mg sample of the crystalline hydrochloride salt of Example 2 was accurately weighed into a covered aluminum pan. After a 5 minute isothermal equilibration period at 22° C., the sample was heated using a linear heating ramp of 10° C./min from 22° C. to 250° C.

[3] = target: T2, hNET (Homo sapiens, UniProt P23975); test: hNET membrane radioligand binding assay (3H-nisoxetine); conditions: compound of Example 1 tested as TFA salt; read-out: NET pKi (converted)
T2 construct: expressed in transfected cells; host or cells: HEK-293 derived cell line, stably transfected; membranes
Method: as §1, §2, §3

T2 sequence (P23975 whole entry): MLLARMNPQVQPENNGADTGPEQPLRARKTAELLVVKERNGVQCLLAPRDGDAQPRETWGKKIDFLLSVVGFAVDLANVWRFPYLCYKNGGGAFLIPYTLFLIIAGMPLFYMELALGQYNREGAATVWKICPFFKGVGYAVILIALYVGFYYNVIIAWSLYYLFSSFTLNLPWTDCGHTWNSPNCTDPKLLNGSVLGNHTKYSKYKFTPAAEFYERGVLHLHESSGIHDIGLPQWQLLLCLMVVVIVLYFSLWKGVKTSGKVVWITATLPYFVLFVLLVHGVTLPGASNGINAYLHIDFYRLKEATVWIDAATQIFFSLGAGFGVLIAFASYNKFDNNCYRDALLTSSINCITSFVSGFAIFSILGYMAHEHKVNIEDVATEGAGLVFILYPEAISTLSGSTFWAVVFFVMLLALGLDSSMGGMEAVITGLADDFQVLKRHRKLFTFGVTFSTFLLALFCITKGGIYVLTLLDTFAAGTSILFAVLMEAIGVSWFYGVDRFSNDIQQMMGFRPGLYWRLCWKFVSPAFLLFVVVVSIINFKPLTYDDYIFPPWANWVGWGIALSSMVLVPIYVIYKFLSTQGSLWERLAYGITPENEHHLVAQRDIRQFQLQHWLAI
T1 sequence (P31645 whole entry): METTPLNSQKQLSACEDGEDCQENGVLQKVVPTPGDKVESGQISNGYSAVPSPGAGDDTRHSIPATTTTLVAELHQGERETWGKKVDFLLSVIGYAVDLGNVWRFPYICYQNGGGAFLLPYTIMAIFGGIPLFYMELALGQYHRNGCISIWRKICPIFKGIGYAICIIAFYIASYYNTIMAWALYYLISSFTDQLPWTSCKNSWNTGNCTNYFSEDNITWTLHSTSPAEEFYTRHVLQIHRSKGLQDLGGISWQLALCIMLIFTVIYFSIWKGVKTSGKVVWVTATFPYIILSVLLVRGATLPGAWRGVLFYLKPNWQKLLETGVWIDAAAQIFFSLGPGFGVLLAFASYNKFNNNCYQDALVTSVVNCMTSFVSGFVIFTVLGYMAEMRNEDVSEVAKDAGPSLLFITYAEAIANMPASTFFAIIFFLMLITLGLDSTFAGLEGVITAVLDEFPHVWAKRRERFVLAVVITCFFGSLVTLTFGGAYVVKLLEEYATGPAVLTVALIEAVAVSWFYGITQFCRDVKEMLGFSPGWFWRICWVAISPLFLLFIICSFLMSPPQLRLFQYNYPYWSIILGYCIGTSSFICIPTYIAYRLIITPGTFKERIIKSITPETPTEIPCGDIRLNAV

Fc1cc(F)c(OCc2ccccc2C2CCNCC2)c(F)c1 [Example 1, 4-[2-(2,4,6-Trifluorophenoxymethyl)phenyl]piperidine]
Ki [1]: ≤ 12.6 nM | thermal stability (thermal decomposition by DSC) [2]: no thermal decomposition below 200.0 °C | Ki [3]: ≤ 10 nM
